Test results: ChEMBL document CHEMBL1201862, “PubChem BioAssay data set” (2004)
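The compound was tested at five concentrations on cells cultured in 96-well plates, with a 48-hour exposure period. GI50: concentration for 50% inhibition of growth.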 Calls of active or inactive are those of the source. No stated cut-off is given here; in the data, active = GI50 up to about 1.1 µM and inactive = higher.

What was measured:
Experiment in all cases: DTP human tumour cell line panel, 48 h
[1] = tested on: A549
[2] = tested on: CAKI-1
[3] = tested on: HCC 2998
[4] = tested on: HCT-116
[5] = tested on: HCT-15
[6] = tested on: HL-60
[7] = tested on: IGROV-1
[8] = tested on: KM12
[9] = tested on: MDA-MB-231
[10] = tested on: MOLT-4
[11] = tested on: NCI-H460
[12] = tested on: OVCAR-8
[13] = tested on: RPMI-8226
[14] = tested on: RXF 393
[15] = tested on: SW-620
[16] = tested on: UACC-257
[17] = tested on: UO-31
[18] = tested on: Malme-3M
[19] = tested on: OVCAR-4

| SMILES | GI50 [1] | GI50 [2] | GI50 [3] | GI50 [4] | GI50 [5] [µM] | GI50 [6] | GI50 [7] | GI50 [8] | GI50 [9] | GI50 [10] | GI50 [11] | GI50 [12] | GI50 [13] | GI50 [14] | GI50 [15] | GI50 [16] | GI50 [17] | GI50 [18] | GI50 [19] |
| --- | --- | --- | --- | --- | --- | --- | --- | --- | --- | --- | --- | --- | --- | --- | --- | --- | --- | --- | --- |
| COc1ccc(/N=c2/oc3ccccc3cc2C(N)=O)cc1 | 42 µM (inactive) | 13.6 µM (inactive) | > 100 µM (inactive) | 26 µM (inactive) | > 100 | > 100 µM (inactive) | 24.5 µM (inactive) | 43.3 µM (inactive) | 30.5 µM (inactive) | > 100 µM (inactive) | > 100 µM (inactive) | 27.4 µM (inactive) | > 100 µM (inactive) | 40.5 µM (inactive) | > 100 µM (inactive) | > 100 µM (inactive) | 2.33 µM (inactive) | – | – |
| COc1ccc2c(c1)CCCN1CCc3ccccc3C21 (stereo unspecified) | 37.3 µM (inactive) | 74.5 µM (inactive) | 69 µM (inactive) | 16.8 µM (inactive) | 30.5 | 17.1 µM (inactive) | 50 µM (inactive) | 34.7 µM (inactive) | 23.9 µM (inactive) | 80.4 µM (inactive) | 56.1 µM (inactive) | 39.9 µM (inactive) | – | 25.9 µM (inactive) | 67.8 µM (inactive) | 47.8 µM (inactive) | – | 37.2 µM (inactive) | > 100 µM (inactive) |
| COC(=O)C(Cc1c[nH]c2ccccc12)NP(=O)(O)OCC1OC(n2cc(F)c(=O)[nH]c2=O)CC1O (stereo unspecified) | 10.4 µM (inactive) | – | 99.3 µM (inactive) | 14.5 µM (inactive) | > 100 | 40.9 µM (inactive) | > 71.1 µM (inactive) | > 96.2 µM (inactive) | > 100 µM (inactive) | 10.1 µM (inactive) | 1.14 µM (inactive) | 65.9 µM (inactive) | 31.3 µM (inactive) | > 100 µM (inactive) | > 100 µM (inactive) | > 100 µM (inactive) | 23.2 µM (inactive) | > 100 µM (inactive) | > 100 µM (inactive) |
| CC(=O)C1C(=O)C(=O)N(c2ccc([N+](=O)[O-])cc2)C1=O (stereo unspecified) | 80.4 µM (inactive) | > 100 µM (inactive) | > 100 µM (inactive) | > 100 µM (inactive) | > 100 | > 100 µM (inactive) | > 100 µM (inactive) | > 100 µM (inactive) | > 100 µM (inactive) | > 100 µM (inactive) | > 100 µM (inactive) | > 100 µM (inactive) | – | > 100 µM (inactive) | > 100 µM (inactive) | > 100 µM (inactive) | > 100 µM (inactive) | – | > 100 µM (inactive) |
| O=C(NCCCCNCCCNC(=O)C(F)(F)F)C(F)(F)F | > 100 µM (inactive) | > 100 µM (inactive) | > 100 µM (inactive) | > 100 µM (inactive) | > 100 | 5.07 µM (inactive) | > 100 µM (inactive) | > 100 µM (inactive) | > 100 µM (inactive) | > 100 µM (inactive) | > 100 µM (inactive) | > 100 µM (inactive) | > 100 µM (inactive) | > 100 µM (inactive) | > 100 µM (inactive) | > 100 µM (inactive) | > 100 µM (inactive) | – | > 100 µM (inactive) |
| O=c1[nH]c(NCc2cccnc2)nc2[nH]cnc12 | > 100 µM (inactive) | > 100 µM (inactive) | > 100 µM (inactive) | > 100 µM (inactive) | > 100 | – | > 100 µM (inactive) | > 100 µM (inactive) | > 100 µM (inactive) | > 100 µM (inactive) | > 100 µM (inactive) | > 100 µM (inactive) | > 100 µM (inactive) | > 100 µM (inactive) | > 100 µM (inactive) | > 100 µM (inactive) | > 100 µM (inactive) | > 100 µM (inactive) | > 100 µM (inactive) |
| CCOc1cc2c(=O)oc3c(OC)ccc4ccc(c1OC)c2c43 | 28.5 µM (inactive) | > 100 µM (inactive) | 77.3 µM (inactive) | 6.64 µM (inactive) | > 100 | > 100 µM (inactive) | > 100 µM (inactive) | > 100 µM (inactive) | 14.5 µM (inactive) | > 100 µM (inactive) | 25.1 µM (inactive) | 25.2 µM (inactive) | – | 52.7 µM (inactive) | > 100 µM (inactive) | > 100 µM (inactive) | > 100 µM (inactive) | > 100 µM (inactive) | 58.7 µM (inactive) |
| C/C(=N/NC(=S)N1CCCC1)c1cccc(/C(C)=N\NC(=S)N2CCCC2)n1 | 1.44 µM (inactive) | 1.28 µM (inactive) | 1.21 µM (inactive) | 1.14 µM (inactive) | 0.492 | 0.453 µM (active) | 0.881 µM (active) | 1.22 µM (inactive) | 0.046 µM (active) | 0.0412 µM (active) | 1.06 µM (active) | 1.11 µM (active) | 2.06 µM (inactive) | 1.32 µM (inactive) | 0.267 µM (active) | – | 0.766 µM (active) | 1.84 µM (inactive) | – |
| CSC1=Nc2ccccc2-c2nc3ccccc3cc2C1 | > 100 µM (inactive) | > 100 µM (inactive) | > 100 µM (inactive) | > 100 µM (inactive) | > 100 | 76 µM (inactive) | > 100 µM (inactive) | 14.4 µM (inactive) | > 100 µM (inactive) | > 100 µM (inactive) | > 100 µM (inactive) | > 100 µM (inactive) | – | > 100 µM (inactive) | – | > 100 µM (inactive) | > 100 µM (inactive) | > 100 µM (inactive) | > 100 µM (inactive) |
| CCOC(=O)Cn1c(=O)c2nc(SC)sc2n(-c2ccccc2)c1=S | 82.2 µM (inactive) | – | 40 µM (inactive) | 27.5 µM (inactive) | 52 | 32.3 µM (inactive) | 3.05 µM (inactive) | 25.8 µM (inactive) | 22.3 µM (inactive) | > 100 µM (inactive) | 30.1 µM (inactive) | 43.9 µM (inactive) | > 100 µM (inactive) | 21 µM (inactive) | 50.4 µM (inactive) | > 100 µM (inactive) | 4.43 µM (inactive) | 18.8 µM (inactive) | 15.3 µM (inactive) |
| Sc1nc2c(c(-c3nc(S)nc4c3CCCCCCCCCC4)n1)CCCCCCCCCC2 | > 100 µM (inactive) | > 100 µM (inactive) | > 100 µM (inactive) | > 100 µM (inactive) | > 100 | > 100 µM (inactive) | > 100 µM (inactive) | > 100 µM (inactive) | > 100 µM (inactive) | > 100 µM (inactive) | > 100 µM (inactive) | > 100 µM (inactive) | – | > 100 µM (inactive) | > 100 µM (inactive) | > 100 µM (inactive) | > 100 µM (inactive) | > 100 µM (inactive) | > 100 µM (inactive) |
| Cc1cc2c3c(ccc4[nH]cc(c43)CN2c2ccc(NS(C)(=O)=O)cc2)n1 | 25.6 µM (inactive) | 25.9 µM (inactive) | 30.2 µM (inactive) | 11.4 µM (inactive) | > 100 | 28.1 µM (inactive) | 48.4 µM (inactive) | > 100 µM (inactive) | 22 µM (inactive) | 3.02 µM (inactive) | 91.6 µM (inactive) | 29 µM (inactive) | 13.5 µM (inactive) | 28.9 µM (inactive) | > 100 µM (inactive) | > 100 µM (inactive) | 12.7 µM (inactive) | – | > 100 µM (inactive) |
